{
  "source": "patent US11357748B2",
  "about": "“Methods for treating mendelian disorders of the epigenetic machinery” (THE JOHNS HOPKINS UNIVERSITY, priority 2014, dated 2022)",
  "key": {"[1]": {"tested_on": "H3K4 trimethylation activity in Kmt2d+/βGeo MEFs", "test": "H3K4me3 indicator in murine embryonic fibroblasts (MEFs) from Kmt2d+/βGeo and Kmt2d+/+ mice", "format": "cell-based, mouse", "details": "FIG. 18H", "description": "An H3K4 trimethylation reporter was also created (FIG. 5B). This reporter is based on the H3 tail on one end and the TBP associated factor III (TAFIII) […] on the other end; the TAFIII […] only identifies and binds to trimethylated K4 on H3. When the H3K4 site gets trimethylated, the TAFIII […] can bind to the modified H3 tail and bring the two parts of the separated GFP in close proximity. The activity of the epigenetic modification system can be quantified through fluorescence.\nEpigenetic reporter alleles were synthesized (OriGene, Rockville, Md.) using published sequences for component elements (Baird et al. (1999) Proc. Natl. Acad. Sci. 96:11241-6; Souslova et al. (2007) BMC Biotechnol. 7:37). Single nucleotide mutations were created using the QuickChange Lightening kit (Agilent Technologies Inc, Santa Clara, Calif.). For H4ac indicator, K5R, K8R, K12R, K16R and K20R (MUT indicator) were introduced. For H3K4me3 indicator, K4Q and D890A/W891A and M882A (three separate constructs) were introduced. […] FACS data were analyzed using FlowJo (Tree Star Inc, Ashland, Oreg.). […]\nEpigenetic reporter systems were created that monitor either H4 acetylation or H3K4 trimethylation machinery activity in an effort to determine whether there is an ongoing activity deficiency in cells from Kmt2d^+/βGeo mice (FIG. 18A). Both reporter alleles encode halves of green fluorescent protein separated by a flexible linker region (Baird et al. (1999) Proc. Natl. Acad. Sci. 96: 11241-6) with a histone tail and a histone reader at the N- and C-termini, respectively. When the histone tail corresponding to either H4 or H3 is modified by acetylation or methylation, respectively, GFP structure and function are reconstituted, as detected by a fluorescent readout (FIG. 18B). The acetyl reporter protein quantifies the activity of the acetylation machinery (acetylation of H4 specifically at sites K5, K8, K12, and K16) and comprises an H4 tail (residues 1-30) on one end and a TATA binding protein (TBP)-associated factor II (TAFII) bromodomain on the other end (FIG. 18A). […]"}, "Klf10 expression": {"tested_on": "Klf10 expression", "test": "Real-time PCR of Kmt2d target gene Klf10 in spleen cells", "format": "in vivo, mouse", "details": "AR-42 treatment (10 mg/kg/day); FIG. 26", "procedure": "Real-time PCR was performed using Kmt2d-specific probes for exons 20 and 52 (Mm_02600438 and Mm_01717664, respectively) from TaqMan® Gene Expression Assays (Life Technologies, Carlsbad, Calif.). For a comparison of transfection efficiencies for indicator constructs in transient transfection studies, real-time PCR was performed using SYBR Green Real-Time PCR Master Mix (Life Technologies, Carlsbad, Calif.) and primers IND-F-([…]; SEQ ID NO: 5) and IND-R-([…]; SEQ ID NO: 6) that are specific for the H3K4 methylation indicator. For expression analysis for KMT2D target gene KLF10, real-time PCR was performed using Klfl0-specific expression assay (Mm00449812_m1) from TaqMan® Gene Expression Assays (Life Technologies, Carlsbad, Calif.)."}},
  "note": "Entries after “also recorded” stand apart in the source; their conditions may differ.",
  "data": [
    {"smiles": "CC(C)[C@H](C(=O)Nc1ccc(C(=O)NO)cc1)c1ccccc1", "note": "[AR-42, (S)—N-hydroxy-4-(3-methyl-2-phenylbutanamido)benzamide]", "values": [
      {"measurement": "H3K4 trimethylation activity in Kmt2d+/βGeo cells upon treatment", "setting": "[1]; Kmt2d+/βGeo MEFs, 22A, 23", "result": "enhanced"},
      {"measurement": "H3K4me3 indicator activity in MEFs", "setting": "[1]; both genotypes (Kmt2d+/+ and Kmt2d+/βGeo)", "result": "dose-dependent response"},
      {"measurement": "Klf10 expression in spleen cells of Kmt2d+/βGeo mice", "setting": "Klf10 expression", "result": "normalization of expression of Klf10; also recorded: normalized"}
    ]}
  ]
}
